Measurements: patent US10428043B2, “Green oxidation catalytic system” (TRUSTEES OF BOSTON UNIVERSITY, priority 2014, dated 2019)
Values joined by “and” are separate entries in the source; they are usually repeats but may differ in a detail not shown here. Identical values can stand only once. Like-named read-outs stand apart in the source and are kept apart here.

What was measured:
Solubility = type: physicochemical
[1] = Room temperature O2 reactivity of ferrous complexes followed by UV/vis
Description: The solution was transferred to an anaerobic UV/vis cell and sealed. An initial spectrum was obtained of the ferrous complex, and then the solution was exposed to the air. Spectra were recorded every minute for the first two minutes and then every 5-30 minutes after that for seven hours. The absorbance was monitored at 350 nm to follow formation of the oxidized complex.
This solution was then transferred to an anaerobic UV/vis cell and sealed. An initial spectrum was obtained of the ferrous complex, and then the solution was exposed to the air. Spectra were collected every minute for the first 30 minutes and then every 5-20 minutes after that for 2 hours. The absorbance was monitored at 315 nm to follow formation of the oxidized complex.

[2] = Cyclic voltammetry, redox potentials; type: physicochemical
Source text: All reagents and solvents used were purchased from commercial sources and used as received unless otherwise noted. Prior to use, methanol (Pharmco-Aaper) was distilled over magnesium metal, dimethyl sulfoxide (Fisher Scientific) was distilled over calcium hydride, triethylamine was distilled over sodium metal and unstabilized dichloromethane (Fisher Scientific) was distilled over calcium hydride. Ferrocene was purified by sublimation for use as a reference for electrochemical analyses. All manipulations involving ferrous complexes were carried out in an inert atmosphere glovebox (M. Braun, Stratham, N.H.) with distilled and thoroughly degassed solvents. UV/Vis spectra were collected using a Hewlett Packard Spectrometer (8453). IR spectra were collected using a Thermo Nicolet AVATAR 330-FT-IR. Cyclic voltammetry experiments were performed using a Princeton Applied Research model 273 potentiostat with a glassy carbon working electrode, a silver wire reference electrode and a platinum wire counter electrode. Electron Paramagnetic Resonance (EPR) spectra were collected on a Bruker ESP-300E spectrometer operating at 9.460 GHz. NMR spectra were recorded at 25° C. using a Varian spectrometer operating at 400 MHz with all chemical shifts referenced to SiMe4. Iron concentrations were determined using a Varian AA240Z Atomic Absorption Spectrometer.
Cyclic voltammetry was performed inside an inert atmosphere (N2) box, with degassed DMSO as the solvent and tetra-N-butylammonium hexafluorophosphate as the supporting electrolyte (0.2M). The ferrocenium/ferrocene couple was used as an internal reference; reduction potential values were corrected by assigning the ferrocenium/ferrocene couple to 0.64 V versus NHE (Zanello, P. Inorganic Electrochemistry; The Royal Society of Chemistry: Cambridge, 2003). Chloride titration experiments were performed by collecting CV data after the addition of one and two 50 μL aliquots of 204 mM [NEt4][Cl] to 3.0 mL of 3.4 mM [Fe^II(N2O1py)(Cl)2]^− (concentration determined using flame atomic absorption spectroscopy) and correcting the potential with reference to the ferrocenium/ferrocene couple.
It should be noted that these redox potentials were determined in the absence of excess halide, and further CV studies will be performed in the presence of excess halide for all derivatives of the N2O1py system.

[3] = vs. NHE, quasi-reversible; Thesis of Tarves 2012; cited from earlier work
[4] = Catalytic oxidation of methanol to formaldehyde with α-KG and O2 (Nash assay)
[5] = Low-temperature stopped-flow kinetics of adduct complexes with dioxygen; conditions: −85° C.
Description: Stopped-flow Spectroscopy and Data analysis.
Kinetic studies of [Fe^II(N2O1)(α-KG)(CH3OH)]^− and [Fe^II(N2O1)(p-X-BF)(CH3OH)]^− adduct complexes with dioxygen. Low-temperature stopped flow studies of this reaction were performed.
Order dependence analysis.
The kinetic model was built by starting from simple two- and three-exponential processes.
Stoichiometry of the equations for the proposed model in FIG. 29: […]

[6] = calculated from redox potentials for the one-electron transfer between iron and dioxygen
[7] = [24] 1.0 mM, O2 5 mM, benzoate 3.1 mM
[8] = complex 0.94-1.1 mM, O2 5 mM, methanol

## CN(CC(=O)[O-])Cc1ccccn1.[Cl-].[Cl-].[Fe+2] [[Fe^II(N2O1py)(Cl)2]^−, [PSH][Fe^II(N2O1py)(Cl)2]]
Solubility
  solubility properties compared with the first generation catalyst: very similar solubility properties
[1]; methanol
  time for formation of the diferric oxo-bridged product on reaction with O2: > 7 h
[2]
  redox potential: 188 mV
[2]; DMSO, glassy carbon working electrode, absence of excess halide
  E1/2: 216 mV
[2]; [6]
  Keq: 1.7 × 10^−9
  ΔG°: 50 kJ
[2]; no added halide
  ΔE: 96 mV
[2]; no added halide, in mV
  E1/2: +216

## CN(C)CCN(C)CC(=O)[O-].CO.O=C([O-])C(=O)c1ccccc1.[Fe+2] [compound 24, [Fe^II(N2O1)(p-H-BF)]]
[3]
  E1/2: 60 mV
[4]; iron complex 0.47 mM
  TON predicted from the line of best fit in FIG. 2 for the α-KG adduct complex: 0.9
[4]; iron complex 0.94 mM
  TON predicted from the line of best fit in FIG. 2 for the α-KG adduct complex: 0.6
[4]; iron complex 1.34 mM
  TON predicted from the line of best fit in FIG. 2 for the α-KG adduct complex: 0.3
[5]; [24] 0.47 mM, O2 5 mM
  k′1: 8.5 ± 0.2 s⁻¹
  k′2: 170 ± 8 M⁻¹ s⁻¹
  k′2obs: 0.9 ± 0.04 s⁻¹
  k′3: 21 ± 0.06 s⁻¹
  k′4: 0.2 ± 0.01 s⁻¹
[5]; [24] 0.94 mM, O2 5 mM
  k′2obs: 0.13 ± 0.02 s⁻¹
[5]; [7]
  k′1: 0.04 ± 0.01 s⁻¹
  k′2: 2900 ± 500 M⁻¹ s⁻¹
  k′3: 0.25 ± 0.05 s⁻¹
  k′4obs: 1.1 ± 0.2 s⁻¹
[5]; [24] 1.34 mM, O2 2.5 mM
  k′1: 7 ± 1.2 s⁻¹
  k′2obs: 0.2 ± 0.1 s⁻¹
  k′3: 14 ± 6 s⁻¹
  k′4: 0.2 ± 0.03 s⁻¹
[5]; [24] 1.34 mM, O2 3.5 mM
  k′1: 9 ± 1.1 s⁻¹
  k′2obs: 0.5 ± 0.2 s⁻¹
  k′3: 16 ± 4 s⁻¹
  k′4: 0.3 ± 0.09 s⁻¹
[5]; [24] 1.34 mM, O2 5 mM
  k′1: 6.1 ± 0.9 s⁻¹ and 8 ± 0.9 s⁻¹
  k′2: 150 ± 5 M⁻¹ s⁻¹
  k′3: 20 ± 1.1 s⁻¹ and 21 ± 5 s⁻¹
[5]; [8]
  k′1: 7.8 ± 1.0 s⁻¹
  k′3: 20 ± 0.9 s⁻¹
  k′4 (k′4obs): 0.4 ± 0.03 s⁻¹
[1]
  rate of room temperature reactivity with O2 (time): ~200 min
